# Values of other authors, collected in patent publication US5275819A, “Drug loaded pollen grains with an outer coating for pulsed delivery” (Amer Particle Technologies Inc., priority 1991, dated 1994).
# Conditions: compared with GNRH
compound,measurement,value
CC(C)C[C@H](NC(=O)[C@@H](Cc1ccc2ccccc2c1)NC(=O)[C@H](Cc1ccc(O)cc1)NC(=O)[C@H](CO)NC(=O)[C@H](Cc1c[nH]c2ccccc12)NC(=O)[C@H](Cc1c[nH]cn1)NC(=O)[C@@H]1CCC(=O)N1)C(=O)N[C@@H](CCCNC(=N)N)C(=O)N1CCC[C@H]1C(=O)NCC(N)=O [Nafarelin],activity relative to GNRH,200 times
